{"source": "ChEMBL document CHEMBL4385629", "about": "“Evaluation of quinoxaline compounds as ligands of a site adjacent to S2 (AS2) of cruzain” (Bioorg Med Chem Lett, 2019)", "key": {"[1]": {"target": "Cruzipain (Trypanosoma cruzi) (UniProt P25779)", "sequence (P25779 123-467 limits assumed)": "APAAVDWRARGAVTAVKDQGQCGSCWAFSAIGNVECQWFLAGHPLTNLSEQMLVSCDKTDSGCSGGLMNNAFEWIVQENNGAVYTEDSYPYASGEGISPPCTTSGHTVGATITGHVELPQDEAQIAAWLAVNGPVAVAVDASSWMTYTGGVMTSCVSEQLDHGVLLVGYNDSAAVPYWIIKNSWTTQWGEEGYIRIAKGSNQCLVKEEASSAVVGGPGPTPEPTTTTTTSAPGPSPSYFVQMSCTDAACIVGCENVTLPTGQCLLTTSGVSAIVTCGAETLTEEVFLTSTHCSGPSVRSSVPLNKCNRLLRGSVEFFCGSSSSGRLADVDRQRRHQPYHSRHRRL", "experiment": "Activation of Trypanosoma cruzi cruzain assessed as increase in enzyme activity using Z-FR-AMC as substrate at 0.1 mM incubated for 15 mins in dark and measured at 5 mins interval for 60 mins by fluorescence based method relative to control"}, "[2]": {"target": "Cruzipain (Trypanosoma cruzi) (UniProt P25779)", "experiment": "Inhibition of Trypanosoma cruzi cruzain assessed as reduction in 7-amino-4-methylcoumarin production using Z-FR-AMC as substrate and measured up to 60 mins by fluorescence based method"}}, "note": "Active and inactive are the calls of the source. No cut-off for these calls is given here.", "data": [{"compound": "O=C(O)CCc1nc2ccccc2[nH]c1=O", "values": [{"measurement": "fold change (FC)", "setting": "[1]", "value": 10}, {"measurement": "inhibition", "setting": "[2]", "value": "inactive"}]}, {"compound": "Oc1nc2ccccc2nc1O", "values": [{"measurement": "fold change (FC)", "setting": "[1]", "value": 3}, {"measurement": "inhibition", "setting": "[2]", "value": "inactive"}]}, {"compound": "O=C1CNc2ccccc2N1", "values": [{"measurement": "fold change (FC)", "setting": "[1]", "value": 15}, {"measurement": "inhibition", "setting": "[2]", "value": "inactive"}]}]}
